In ChEMBL document CHEMBL4411284, “Discovery of novel quaternary ammonium compounds based on quinuclidine-3-ol as new potential antimicrobial candidates” (Eur J Med Chem, 2019):
Active and inactive are the calls of the source. The calls are words filed in the database; no cut-off is given here.

Assays:
Staphylococcus aureus [1] = assay: Bactericidal activity against methicillin-resistant Staphylococcus aureus clinical isolate preincubated for 24 to 48 hrs followed by replating on MHA plates and measured after 18 hrs by broth microdilution assay; format: functional
Staphylococcus aureus [2] = assay: Bactericidal activity against Staphylococcus aureus ATCC 29213 preincubated for 24 to 48 hrs followed by replating on MHA plates and measured after 18 hrs by broth microdilution assay; format: functional
Acinetobacter baumannii [3] = assay: Bactericidal activity against Acinetobacter baumannii ATCC 19606 preincubated for 24 to 48 hrs followed by replating on MHA plates and measured after 18 hrs by broth microdilution assay; format: functional; conditions: ATCC 19606 = CIP 70.34 = JCM 6841
Acinetobacter baumannii [4] = assay: Bactericidal activity against Acinetobacter baumannii clinical isolate preincubated for 24 to 48 hrs followed by replating on MHA plates and measured after 18 hrs by broth microdilution assay; format: functional
Klebsiella pneumoniae [5] = assay: Antimicrobial activity against Klebsiella pneumoniae clinical isolate after 24 to 48 hrs by broth microdilution assay; format: functional
Candida albicans = assay: Antifungal activity against Candida albicans ATCC 90029 after 24 to 48 hrs by broth microdilution assay; format: functional
Klebsiella pneumoniae [6] = assay: Bactericidal activity against Klebsiella pneumoniae clinical isolate preincubated for 24 to 48 hrs followed by replating on MHA plates and measured after 18 hrs by broth microdilution assay; format: functional
Pseudomonas aeruginosa [7] = assay: Bactericidal activity against Pseudomonas aeruginosa ATCC 27853 preincubated for 24 to 48 hrs followed by replating on MHA plates and measured after 18 hrs by broth microdilution assay; format: functional
Streptococcus pyogenes [8] = assay: Bactericidal activity against Streptococcus pyogenes ATCC 19615 preincubated for 24 to 48 hrs followed by replating on MHA plates and measured after 18 hrs by broth microdilution assay; format: functional
Enterococcus faecalis [9] = assay: Antimicrobial activity against Enterococcus faecalis ATCC 29212 after 24 to 48 hrs by broth microdilution assay; format: functional
Listeria monocytogenes [10] = assay: Antimicrobial activity against Listeria monocytogenes ATCC 19111 (1/2a) after 24 to 48 hrs by broth microdilution assay; format: functional
Pseudomonas aeruginosa [11] = assay: Antimicrobial activity against Pseudomonas aeruginosa ATCC 27853 after 24 to 48 hrs by broth microdilution assay; format: functional
Penicillium citrinum = assay: Antifungal activity against Penicillium citrinum after 24 to 48 hrs by broth microdilution assay; format: functional
Acinetobacter baumannii [12] = assay: Antimicrobial activity against Acinetobacter baumannii ATCC 19606 after 24 to 48 hrs by broth microdilution assay; format: functional; conditions: ATCC 19606 = CIP 70.34 = JCM 6841
Enterococcus faecalis [13] = assay: Bactericidal activity against Enterococcus faecalis ATCC 29212 preincubated for 24 to 48 hrs followed by replating on MHA plates and measured after 18 hrs by broth microdilution assay; format: functional
Escherichia coli [14] = assay: Antimicrobial activity against Escherichia coli clinical isolate after 24 to 48 hrs by broth microdilution assay; format: functional
Salmonella typhimurium [15] = assay: Antimicrobial activity against Salmonella typhimurium WDCM 00031 after 24 to 48 hrs by broth microdilution assay; format: functional, Salmonella enterica subsp. enterica serovar Typhimurium; conditions: Salmonella enterica
Acinetobacter baumannii [16] = assay: Antimicrobial activity against Acinetobacter baumannii clinical isolate after 24 to 48 hrs by broth microdilution assay; format: functional
Listeria monocytogenes [17] = assay: Bactericidal activity against Listeria monocytogenes ATCC 19111 (1/2a) preincubated for 24 to 48 hrs followed by replating on MHA plates and measured after 18 hrs by broth microdilution assay; format: functional
Streptococcus pyogenes [18] = assay: Antimicrobial activity against Streptococcus pyogenes ATCC 19615 after 24 to 48 hrs by broth microdilution assay; format: functional
Escherichia coli [19] = assay: Antimicrobial activity against Escherichia coli ATCC 25922 after 24 to 48 hrs by broth microdilution assay; format: functional
Salmonella typhimurium [20] = assay: Bactericidal activity against Salmonella typhimurium WDCM 00031 preincubated for 24 to 48 hrs followed by replating on MHA plates and measured after 18 hrs by broth microdilution assay; format: functional, Salmonella enterica subsp. enterica serovar Typhimurium; conditions: Salmonella enterica
Klebsiella pneumoniae [21] = assay: Bactericidal activity against Klebsiella pneumoniae ATCC 13883 preincubated for 24 to 48 hrs followed by replating on MHA plates and measured after 18 hrs by broth microdilution assay; format: functional
Aspergillus niger = assay: Antifungal activity against Aspergillus niger after 24 to 48 hrs by broth microdilution assay; format: functional
Escherichia coli [22] = assay: Bactericidal activity against Escherichia coli clinical isolate preincubated for 24 to 48 hrs followed by replating on MHA plates and measured after 18 hrs by broth microdilution assay; format: functional
Staphylococcus aureus [23] = assay: Antimicrobial activity against methicillin-resistant Staphylococcus aureus clinical isolate after 24 to 48 hrs by broth microdilution assay; format: functional
Staphylococcus aureus [24] = assay: Antimicrobial activity against Staphylococcus aureus ATCC 29213 after 24 to 48 hrs by broth microdilution assay; format: functional
Escherichia coli [25] = assay: Bactericidal activity against Escherichia coli ATCC 25922 preincubated for 24 to 48 hrs followed by replating on MHA plates and measured after 18 hrs by broth microdilution assay; format: functional
Klebsiella pneumoniae [26] = assay: Antimicrobial activity against Klebsiella pneumoniae ATCC 13883 after 24 to 48 hrs by broth microdilution assay; format: functional
HeLa = assay: Cytotoxicity against human HeLa cells assessed as reduction in cell viability after 48 hrs by MTS assay; format: cell-based
Staphylococcus aureus [27] = assay: Induction of morphological changes in Staphylococcus aureus ATCC 29213 assessed as cell wall damage at MIC after 1 hr by atomic force microscopic analysis; format: functional, organism-based
HEK293 = assay: Cytotoxicity against HEK293 cells assessed as reduction in cell viability after 48 hrs by MTS assay; format: cell-based; conditions: Homo sapiens, HEK293, 48 h

SMILES: CCCCCCCCCC[N+]12CCC(CC1)C(O)C2.[Br-] (centres undefined)
- MBC (Staphylococcus aureus [1]): 500 µg/mL
- MBC (Staphylococcus aureus [2]): 125 µg/mL
- MBC (Acinetobacter baumannii [3]): 1000 µg/mL
- MBC (Acinetobacter baumannii [4]): 1000 µg/mL
- MIC (Klebsiella pneumoniae [5]): 1000 µg/mL
- MIC50 (Candida albicans): 31.2 µg/mL
- MIC90 (Candida albicans): 62.5 µg/mL
- MBC (Klebsiella pneumoniae [6]): 1000 µg/mL
- MBC (Pseudomonas aeruginosa [7]): 2000 µg/mL
- MBC (Streptococcus pyogenes [8]): 15.6 µg/mL
- MIC (Enterococcus faecalis [9]): 250 µg/mL
- MIC (Listeria monocytogenes [10]): 250 µg/mL
- MIC (Pseudomonas aeruginosa [11]): 2000 µg/mL
- MIC50 (Penicillium citrinum): 250 µg/mL
- MIC90 (Penicillium citrinum): 500 µg/mL
- MIC (Acinetobacter baumannii [12]): 1000 µg/mL
- MBC (Enterococcus faecalis [13]): 250 µg/mL
- MIC (Escherichia coli [14]): 500 µg/mL
- MIC (Salmonella typhimurium [15]): 1000 µg/mL
- MIC (Acinetobacter baumannii [16]): 500 µg/mL
- MBC (Listeria monocytogenes [17]): 250 µg/mL
- MIC (Streptococcus pyogenes [18]): 15.6 µg/mL
- MIC (Escherichia coli [19]): 250 µg/mL
- MBC (Salmonella typhimurium [20]): 1000 µg/mL
- MBC (Klebsiella pneumoniae [21]): 1000 µg/mL
- MIC50 (Aspergillus niger): 125 µg/mL
- MIC90 (Aspergillus niger): 250 µg/mL
- MBC (Escherichia coli [22]): 500 µg/mL
- MIC (Staphylococcus aureus [23]): 500 µg/mL
- MIC (Staphylococcus aureus [24]): 125 µg/mL
- MBC (Escherichia coli [25]): 250 µg/mL
- MIC (Klebsiella pneumoniae [26]): 1000 µg/mL

SMILES: CCCCCCCCCCCC[N+](C)(C)Cc1ccccc1.[Br-]
- MBC (Staphylococcus aureus [2]): 1.5 µg/mL
- IC50 (HeLa): 3.98 µg/mL
- Activity (Staphylococcus aureus [27]): Active
- IC50 (HEK293): 1 µg/mL
- MIC (Escherichia coli [19]): 3.9 µg/mL
- MIC (Staphylococcus aureus [24]): 1.5 µg/mL
- MBC (Escherichia coli [25]): 3.9 µg/mL
